Reference: patent US20250011809A1, “VIRAL VECTOR PRODUCTION” (Cell Therapy Catapult Limited, priority 2021, published 2025)
“And” between values parts separate entries of the source, which are not always exact repeats. Equal values may be shown once. Ends that are not written are not given here.

Key:
Type in all cases: cell-based, human
HEK293 cells = assay: Viability of adherent HEK293 cells after transfection with GFP reporter plasmid (Example 1); conditions: 3 days after transfection with 50 ng GFP plasmid; RALA N:P10, PEIpro 3:1; FIG. 1
Protocol: HEK293 cells were seeded at a density of 1×10^5 cells per well on 24 well plates. 24 hrs later, cells were transfected with 50 ng of plasmid encoding a GFP reporter gene, either complexed with RALA (SEQ ID NO: 1) at N:P10 (14.5 μg of RALA is complexed per 1 μg of DNA) or using PEIpro at a 3:1 ratio. The cells were stained to assess cell viability after 3 days.

[1] = HEK293-F cell count and viability by flow cytometry after transfection in suspension culture (Example 5); set-up: viability at 24 h / viability at 48 h / viability at 72 h: concentration or dose not given beside the values; conditions: human, HEK293-F cells in suspension culture (shake flasks); for viability at 24 h: 24 h post-transf; for viability at 48 h: 48 h post-transf; for viability at 72 h: 72 h post-transf
Protocol: (§1) HEK293-F cells were seeded into shake flasks with a 20 mL serum-free BalanCD medium at working volume at a cell concentration of 1×10^6/mL for lentiviral production and 2×10^6/mL for AAV production. Transfection with the plasmids for AAV1, AAV2, LV (two experimental replicates, LV1 and LV2) were carried out using PEI-Pro or RALA peptides as set out in Table 8 below.
(§2) The HEK293-F cell counts were determined using flow cytometry immediately prior to transfection, and then at 24 hrs, 48 hrs and 72 hrs post transfection.

HEK293-F cells = assay: as above; set-up: viability at 24 h / viability at 48 h / viability at 72 h: concentration or dose not given beside the values
Protocol: as §1, §2

[2] = AAV1 plasmids, 24 h post-transf
[3] = AAV1 plasmids, 48 h post-transf
[4] = AAV1 plasmids, 72 h post-transf
[5] = AAV2 plasmids, 24 h post-transf
[6] = AAV2 plasmids, 48 h post-transf

WEARLARALARALARHLARALARALRACEA [RALA]
viability of adherent HEK293 cells (HEK293 cells): significantly greater | viability at 24 h ([1]; AAV1 plasmids): 90% | viability at 48 h ([1]; AAV1 plasmids): 86.1% | viability at 72 h ([1]; AAV1 plasmids): 83.1% | viability at 24 h ([1]; AAV2 plasmids): 87.7% | viability at 48 h ([1]; AAV2 plasmids): 81.6% | viability at 72 h ([1]; AAV2 plasmids): 76% | viability at 24 h ([1]; LV plasmids): 92% | viability at 48 h ([1]; LV plasmids): 92% | Count (HEK293-F cells; [2]): 3.63E+06 and 3.52E+06 | Via % (HEK293-F cells; [2]): 88.2% | Count (HEK293-F cells; [3]): 4.14E+06 and 3.39E+06 | Via % (HEK293-F cells; [3]): 83.9% | Count (HEK293-F cells; [4]): 5.82E+06 and 5.55E+06 | Via % (HEK293-F cells; [4]): 82.5% | Count (HEK293-F cells; [5]): 3.57E+06 and 3.37E+06 | Via % (HEK293-F cells; [5]): 89.1% | Count (HEK293-F cells; [6]): 3.81E+06 and 4.07E+06 | Via % (HEK293-F cells; [6]): 84.8% | Via % (HEK293-F cells; AAV2 plasmids, 72 h post-transf): 76.5% | Count (HEK293-F cells; LV plasmids, 24 h post-transf): 2.31E+06 and 2.05E+06 | Via % (HEK293-F cells; LV plasmids, 24 h post-transf): 92.7% | Count (HEK293-F cells; LV plasmids, 48 h post-transf): 3.42E+06 and 2.83E+06 | Via % (HEK293-F cells; LV plasmids, 48 h post-transf): 88.6% | Via % (HEK293-F cells; LV plasmids, 72 h post-transf): 89.6% and 86%
